Measurements: patent publication EP4471048A1, “PEPTIDE INHIBITORS OF INTERLEUKIN-23 RECEPTOR” (Zealand Pharma A/S, priority 2023, dated 2024)
Where two headings read alike, the source gives them in different places. *1 amine or outer side, *2 acyl side, *3 side chain or, on linkers, in order; H or OH if unused. Where a SMILES comes first, the peptide text is derived from it. Bridges are numbered along the chain shown (N, C = ends). [ ]: non-standard residue; d: D form. 2Nal = N[C@@H](Cc1ccc2ccccc2c1)C(=O)O; AEF = NCCOc1ccc(C[C@H](N)C(=O)O)cc1; X1 = O=C(Cc1ccc(CN[*:1])cc1)[*:2]; αMeL = CC(C)C[C@](C)(N)C(=O)O; CH2COCH2 = O=C(C[*:1])C[*:2]; Dab = NCC[C@H](N)C(=O)O

How the values were obtained:
[1] = target: IL-23 mediated signalling (Homo sapiens, UniProt Q5VWK5); test: Functional inhibition of IL-23 mediated STAT3 signalling (phospho-STAT3 MSD) in DB cells; assay type: cell-based; conditions: for Emax: read-out: hIL-23 (pSTAT3) antagonist % inhibition
Excerpt: Upon binding of IL-23, the IL-23R forms a heterodimer signalling complex together with IL-12R β1, which through the JAK2/STAT3 pathway promotes phosphorylation of STAT3 to form phospho-STAT3.
For compounds tested in this assay, the response was normalized relative to control values to calculate the IC50 and maximal inhibitory response from a concentration response curve of the compound in presence of a fixed concentration of human IL-23.
The assay procedure was as follows. […] Following preincubation of the DB cells with inhibitor for 15 min in a cell incubator (37 °C, 5% CO2), 20 µL of the prepared 3X the EC80 of hIL-23 solution was added to each well and incubated for 90 min in a cell incubator (37 °C, 5% CO2). For some wells buffer only or IL-23 only corresponding to the EC80 was added to obtain readouts needed for normalization. To terminate the assay, the plate was spun at 1000 G for 5 min to pellet cells, the supernatant removed using an 8-channel manual pipette, and then added 50 µL/well Complete Lysis Buffer from the MSD STAT3 kit (Cat# K150SVD, Mesoscale) to the cell pellet. To completely lyse cells to release phospho-STAT3 for detection, the plate was shaken for 10 min at room temperature (500 rpm) sealed with aluminium foil and placed at -80 °C for a minimum of 15 min. Detection of the phospho-STAT3 level in the cell lysate from the individual wells was determined using the MSD STAT3 kit (Cat# K150SVD, Mesoscale) and read on a Meso QuickPlex SQ 120 plate reader (Mesoscale).
For data analysis raw data counts from the Meso QuickPlex SQ 120 plate reader were normalized relative to the response by the EC80 of h1L-23 alone (no compound added) and the buffer level. Compound potency (IC50) and maximal inhibitory response (% inhibition) were estimated by computer-aided curve fitting using a 4-parameter logistic (4PL) nonlinear model. […] Table 3-2: hIL-23 (pSTAT3) antagonist IC50 and % inhibition

[2] = target: T1, human IL-23R (Homo sapiens, UniProt Q5VWK5); test: biochemical
T1 sequence (Q5VWK5 22-629): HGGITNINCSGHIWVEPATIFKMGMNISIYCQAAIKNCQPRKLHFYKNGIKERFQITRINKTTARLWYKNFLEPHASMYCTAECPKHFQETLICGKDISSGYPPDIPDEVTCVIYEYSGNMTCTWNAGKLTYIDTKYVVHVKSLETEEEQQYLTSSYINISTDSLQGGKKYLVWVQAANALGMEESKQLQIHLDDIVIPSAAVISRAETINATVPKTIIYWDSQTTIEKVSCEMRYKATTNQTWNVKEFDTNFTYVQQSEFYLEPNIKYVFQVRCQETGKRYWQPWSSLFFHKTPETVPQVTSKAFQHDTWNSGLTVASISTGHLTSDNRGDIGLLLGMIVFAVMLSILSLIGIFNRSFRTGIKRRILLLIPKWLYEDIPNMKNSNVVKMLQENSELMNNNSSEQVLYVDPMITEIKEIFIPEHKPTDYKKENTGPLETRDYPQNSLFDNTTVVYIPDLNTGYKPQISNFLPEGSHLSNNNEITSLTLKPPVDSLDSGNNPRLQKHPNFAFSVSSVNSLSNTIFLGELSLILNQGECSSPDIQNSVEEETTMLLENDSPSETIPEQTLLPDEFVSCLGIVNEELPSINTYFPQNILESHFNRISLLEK
In short: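 Membranes from HEK293 cells stably expressing Nluc-tagged human IL-23R were incubated 2 h at room temperature with test compound and a fluorophore-labelled tracer. After substrate addition, loss of BRET (TAMRA over luciferase emission) reported tracer displacement. A 4PL fit gave IC50 values.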

[3] = Peptide stability in simulated gastric fluid (SGF); assay type: in vitro ADME; conditions: 37 °C, porcine pepsin; for SGF (% remaining 1 h) / SGF (% remaining 4 h): 10 µM; for SGF (% remaining 1 h) / remaining at 1 h, 10 µM: pH 1.2, 1 h; for SGF (% remaining 4 h) / remaining at 4 h, 10 µM: pH 1.2, 4 h; for remaining at 1 h, 10 µM / remaining at 4 h, 10 µM: pig, simulated gastric fluid (SGF) with porcine pepsin (3.2 g/L), pH 1.2, 10 µM; for remaining at 1 h, 10 µM: read-out: SGF (% remaining 1 h); for remaining at 4 h, 10 µM: read-out: SGF (% remaining 4 h)
In short: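 Peptide incubated at 37 °C with gentle shaking in SGF (NaCl, pH 1.2). Samples centrifuged, diluted and analysed by LC-HRMS; percent remaining at each timepoint from absolute peak areas relative to time zero, with 4 h as the reference point.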

[4] = Peptide stability in simulated intestinal fluid (SIF); assay type: in vitro ADME; conditions: 37 °C, porcine pancreatin; for SIF (% remaining 1 h) / SIF (% remaining 4 h): 10 µM; for SIF (% remaining 1 h) / remaining at 1 h, 10 µM: pH 6.8, 1 h; for SIF (% remaining 4 h) / remaining at 4 h, 10 µM: pH 6.8, 4 h; for remaining at 1 h, 10 µM / remaining at 4 h, 10 µM: pig
In short: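 Peptides were incubated at 37 °C with gentle shaking in pH 6.8 potassium phosphate SIF containing porcine pancreatin (10 g/L). Supernatants were analysed by LC-HRMS. Percent remaining at each timepoint, including 4 h, was calculated relative to time zero from absolute peak areas.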

[5] = Table 3-2, DB cells, hIL-23 at EC80, read-out: hIL-23 (pSTAT3) antagonist IC50
[6] = Table 3-2, maximal inhibitory response, DB cells, hIL-23 at EC80
[7] = SAR tables 2-1 to 2-7, DB cells, hIL-23 at EC80, read-out: IC50 (pSTAT3)
[8] = SAR tables, % peptide remaining, read-out: SIF (% after 4 h)
[9] = read-out: SIF (% remaining 4 h)

Row | Compound | IC50 [1] [nM] | Emax ([1]; DB) [%] | IC50 [2] [nM] | Ki [2] [nM] | SGF (% remaining 1 h) [3] [%] | SGF (% remaining 4 h) [3] [%] | SIF (% remaining 1 h) [4] [%] | SIF (% remaining 4 h) [4] [%] | IC50 [1, 5] [nM] | Emax [1, 6] [%] | IC50 [1, 7] [nM] | % displacement (hIL-23R NIuc) [2] [%] | remaining at 1 h, 10 µM [3] [%] | remaining at 4 h, 10 µM [3] [%] | remaining at 1 h, 10 µM [4] [%] | remaining at 4 h, 10 µM [4, 8] [%] | remaining at 4 h, 10 µM [4, 9] [%]
1 | CC(C)C[C@@H]1NC(=O)[C@H](Cc2c[nH]c3ccccc23)NC(=O)[C@H](Cc2c[nH]c3ccccc23)NC(=O)[C@@H]2CSCC(=O)CSC[C@H](NC(=O)[C@H]([C@@H](C)O)NC(=O)[C@@H](NC(=O)CN)CSCC(=O)CSC[C@@H](C(=O)N[C@@H](CO)C(N)=O)NC1=O)C(=O)N[C@@H](Cc1c[nH]c3ccccc13)C(=O)N[C@@H](CCC(=O)O)C(=O)N2 (single isomer, unassigned) [I1 (isomer 3), H-GC(1a)TC(2a)WEC(2a)WWLC(1a)S-[NH2], reference compound] | > 1000 | 83 | 130 | 104 | 92 | 94 | 0 | 0 | – | – | – | – | – | – | – | – | –
2 | CSCC[C@H](NC(=O)[C@@H]1CSCC(=O)CSC[C@H](NC(=O)[C@@H](N)CCC(=O)O)C(=O)N[C@@H](Cc2c[nH]c3ccccc23)C(=O)N[C@@H](CC(C)C)C(=O)N[C@H]2CSCC(=O)CSC[C@H](NC(=O)[C@H](CC(N)=O)NC(=O)[C@H](CCCNC(=N)N)NC(=O)[C@H](Cc3ccc(O)cc3)NC(=O)[C@H](Cc3ccc(O)cc3)NC2=O)C(=O)N[C@@H](CC(N)=O)C(=O)N1)C(N)=O (single isomer, unassigned) [I4 (isomer 3), H-EC(4a)WLC(5a)YYRNC(5a)NC(4a)M-[NH2], reference compound] | – | – | > 1000 | > 1000 | 99 | 99 | 0 | 0 | > 1000 | 23 | – | – | – | – | – | – | –
3 | CNC(=O)[C@H](Cc1cccnc1)NC(=O)[C@H](CCN)NC(=O)[C@@H]1CCC(=O)NCCCC[C@@H]2NC(=O)CC[C@H](NC(=O)[C@H](CCC(N)=O)NC(=O)[C@H](Cc3c[nH]c4ccccc34)NC(=O)CNC2=O)C(=O)N[C@@H](Cc2ccc(OCCN)cc2)C(=O)N[C@@H](Cc2ccc3ccccc3c2)C(=O)N[C@@](C)(CC(C)C)C(=O)N1 [Compound 44, K(1c)(6c)^†GWQE(6c)[Y(2-aminoethoxy)][2-Nal][2-Me-Leu]E(1c)[Dab][3-(3-Pyridyl)-Ala]-[NHMe]] | – | – | 4 | – | – | – | – | 5 | – | 100 | 15 | 100 | 100 | 101 | 77 | 5 | –
4 | CNC(=O)[C@H](Cc1cccnc1)NC(=O)[C@H](CCN)NC(=O)[C@@H]1CCC(=O)NCCCC[C@@H]2NC(=O)CC[C@H](NC(=O)[C@H](CCC(N)=O)NC(=O)[C@H](Cc3c[nH]c4ccccc34)NC(=O)CCNC2=O)C(=O)N[C@@H](Cc2ccc(OCCN)cc2)C(=O)N[C@@H](Cc2ccc3ccccc3c2)C(=O)N[C@@](C)(CC(C)C)C(=O)N1 [Compound 45, K(1c)(6c)^†[3-Aminopropanoyl]WQE(6c)[Y(2-aminoethoxy)][2-Nal][2-Me-Leu]E(1c)[Dab][3-(3-Pyridyl)-Ala]-[NHMe]] | – | – | 0.022 | – | – | – | – | 87 | – | 100 | 0.058 | 100 | 98 | 103 | 90 | 87 | –
5 | CC(C)C[C@]1(C)NC(=O)[C@H](Cc2ccc3ccccc3c2)NC(=O)[C@H](Cc2ccc(OCCN)cc2)NC(=O)[C@@H]2CSCC(=O)CSC[C@H](NC(=O)[C@H](CO)NC(=O)Cc3ccc(cc3)CNC(=O)CC[C@@H](C(=O)N[C@H](CCCNC(=N)N)C(N)=O)NC1=O)C(=O)N[C@@H](Cc1c[nH]c3ccccc13)C(=O)N[C@@H](CCC(N)=O)C(=O)N2 [Ref 80, [4-Aminomethyl-phenylacetyl](1c)*SC(2a)WQC(2a)[Y(2-aminoethoxy)][2-Nal][2-Me-Leu]E(1c)[{d}R]-[NH2], reference compound] ([X1]SCWQC[AEF][2Nal][αMeL]E[dR]-NH2; linker 3-6 via CH2COCH2; lactam N-10) | – | – | 0.18 | 0.15 | – | – | – | – | 11 | 97 | – | 98 | – | – | 84 | – | 86
6 | CC(C)C[C@]1(C)NC(=O)[C@H](Cc2ccc3ccccc3c2)NC(=O)[C@H](Cc2ccc(OCCN)cc2)NC(=O)[C@@H]2CSCC(=O)CSC[C@H](NC(=O)[C@H](CO)NC(=O)Cc3ccc(cc3)CNC(=O)CC[C@@H](C(=O)N[C@@H](CO)C(N)=O)NC1=O)C(=O)N[C@@H](Cc1c[nH]c3ccccc13)C(=O)N[C@@H](CCC(N)=O)C(=O)N2 [Ref 81, [4-Aminomethyl-phenylacetyl](1c)*SC(2a)WQC(2a)[Y(2-aminoethoxy)][2-Nal][2-Me-Leu]E(1c)S-[NH2], reference compound] | – | – | 0.39 | 0.318 | – | – | – | – | 21 | 95 | – | 101 | – | – | 99 | – | 77
7 | CC(C)C[C@]1(C)NC(=O)[C@H](Cc2ccc3ccccc3c2)NC(=O)[C@H](Cc2ccc(OCCN)cc2)NC(=O)[C@@H]2CSCC(=O)CSC[C@H](NC(=O)[C@H](CO)NC(=O)Cc3ccc(cc3)CNC(=O)CC[C@@H](C(=O)N[C@@H](CCN)C(N)=O)NC1=O)C(=O)N[C@@H](Cc1c[nH]c3ccccc13)C(=O)N[C@@H](CCC(N)=O)C(=O)N2 [Ref 82, [4-Aminomethyl-phenylacetyl](1c)*SC(2a)WQC(2a)[Y(2-aminoethoxy)][2-Nal][2-Me-Leu]E(1c)[Dab]-[NH2], reference compound] ([X1]SCWQC[AEF][2Nal][αMeL]E[Dab]-NH2; linker 3-6 via CH2COCH2; lactam N-10) | – | – | 0.082 | 0.0665 | – | – | – | – | 11 | 97 | – | 103 | – | – | 95 | – | 77
